pIC50: −log10 of the molar value.

As a reminder, the pIC50 is −log10 of the IC50, conventionally taken in molar units. A low value points to a high IC50.

In the experiment the target is RAF proto-oncogene serine/threonine-protein kinase [Y340E,Y341E] (Human, UniProt P04049, Y340E/Y341E). Briefly: Raf Activity Assay. To be noted: pH 7.5; 25 °C.
Chain of RAF proto-oncogene serine/threonine-protein kinase [Y340E,Y341E] (P04049 whole entry Y340E/Y341E): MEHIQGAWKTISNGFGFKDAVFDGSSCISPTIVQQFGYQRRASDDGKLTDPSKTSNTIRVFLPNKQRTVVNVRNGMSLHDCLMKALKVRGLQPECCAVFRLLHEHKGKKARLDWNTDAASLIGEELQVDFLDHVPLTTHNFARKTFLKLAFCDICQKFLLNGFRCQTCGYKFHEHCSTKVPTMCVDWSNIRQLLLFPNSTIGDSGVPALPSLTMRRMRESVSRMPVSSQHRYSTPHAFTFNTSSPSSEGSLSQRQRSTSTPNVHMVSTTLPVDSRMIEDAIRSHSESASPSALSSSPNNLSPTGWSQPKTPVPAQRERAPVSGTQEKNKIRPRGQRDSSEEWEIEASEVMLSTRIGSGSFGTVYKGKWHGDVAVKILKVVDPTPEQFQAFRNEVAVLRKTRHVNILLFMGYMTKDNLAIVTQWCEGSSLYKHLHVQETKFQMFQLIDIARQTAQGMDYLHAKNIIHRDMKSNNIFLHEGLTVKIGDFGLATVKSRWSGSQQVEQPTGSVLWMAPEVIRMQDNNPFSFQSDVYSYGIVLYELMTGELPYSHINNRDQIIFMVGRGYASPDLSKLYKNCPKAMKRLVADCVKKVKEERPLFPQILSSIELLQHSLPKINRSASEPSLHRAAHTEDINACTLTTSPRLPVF
Description: The plate was incubated for 60 minutes at room temperature. The Raf kinase activity reaction was started by the addition of 5 mL per well of 2xATP diluted in assay buffer. […] The additions were carried out under dark conditions to protect the detection beads from light. A lid was placed on top of the plate and incubated for 1 hour at room temperature, then the luminescence was read on a PerkinElmer Envision instrument.
In turn, `Cc1ncc(NC(=O)c2ccnc(C(C)(F)F)c2)cc1-c1cnc(C#N)c(N2CCOCC2)c1` [US9694016, 250] had a negative logarithm of the IC50 (pIC50) of 9.10. `CCNc1nc(-c2cc(NC(=O)c3ccnc(C(C)(F)F)c3)cnc2C)cc(N2CCOCC2)n1` [US9694016, 725] showed a pIC50 of 8.92. As for `Cc1ccc(NC(=O)c2ccnc(C(C)(C)C#N)c2)cc1-c1cc(N2CCOCC2)nc(OC2CNC2)n1` [US9694016, 777], the negative-log IC50 (pIC50) was 10.10. Compared with the last compound, the pIC50 is 1.18 log units higher. Compound `Cn1cc(-c2cc(NC(=O)c3ccnc(C(C)(F)F)c3)ccc2C#N)cc(N2CCOCC2)c1=O` [US9694016, 416] had a negative-log IC50 (pIC50) of 6.70.

`CNC(=O)C1CN(c2cc(-c3cc(NC(=O)c4cccc(C(F)(F)F)c4)cnc3C)nn3ccnc23)CCO1` (stereo unspecified) [US9694016, 874] had a negative logarithm of the IC50 (pIC50) of 8.47. Against the preceding compound, the pIC50 is 1.77 log units higher. Turning to `CCOc1nnc(-c2cc(NC(=O)c3cccc(C(F)F)c3)cnc2C)cc1N1CCOCC1` [US9694016, 619], the pIC50 is 9.30. As to `CCOc1nc(-c2cc(NC(=O)c3ccnc(C(C)C)c3)ccc2C)cc(N2CCOCC2)n1` [US9694016, 763], the negative logarithm of the IC50 (pIC50) is 9.70. `Cc1ncc(NC(=O)c2cc(CN(C)C)cc(C(F)(F)F)c2)cc1-c1cc(N2CCOCC2)c(=O)n(C)c1` [US9694016, 401] showed a pIC50 of 7.92.

With `Cc1ncc(NC(=O)c2cnnc(C(C)(C)C#N)c2)cc1-c1cc(N2CCOCC2)c(OC2CCOCC2)nn1` [US9694016, 635], the pIC50 was 8.18. This pIC50 is 0.26 log units higher than that of the compound before. The result for `COc1nnc(-c2cc(NC(=O)c3ccnc(C(C)(C)F)c3)cnc2C)cc1N1CCOCC1` [US9694016, 608] reads 8.70. Regarding `Cc1ncc(NC(=O)c2ccnc(C3(C#N)CC3)c2)cc1-c1cnc(OC2CCOCC2)c(N2CCOCC2)c1` [US9694016, 940], the pIC50 is 8.88. The value for `CCOc1nnc(-c2cc(NC(=O)c3ccnc(C(F)(F)F)c3)ccc2C)cc1N1CCOCC1` [US9694016, 566] was 9.70.

In the case of `Cc1ncc(NC(=O)c2ccnc(C(C)(F)F)c2)cc1-c1cc(N2CCOC[C@@H]2C)n(C)c(=O)c1` [US9694016, 526], the negative logarithm of the IC50 (pIC50) was 8.03. In turn, `Cc1ncc(NC(=O)c2ccnc(C(C)(C)C#N)c2)cc1-c1cnc(OC(F)F)c(N2CCOCC2)c1` [US9694016, 225] gave a pIC50 of 8.41.

The compound `CCNc1nc(-c2cc(NC(=O)c3cccc(S(C)(=O)=O)c3)ccc2C)cc(N2CCOCC2)n1` [US9694016, 704] showed a pIC50 of 10.10. `Cc1ccc(NC(=O)c2ccnc(C3CC3)c2)cc1-c1cc(N2CCOCC2)c(=O)n(C)n1` [US9694016, 656] showed a pIC50 of 9.52.

(Values after BindingDB's records for patent US9694016 (Novartis AG, 2017).)
